Earlier results on four compounds are cited in patent US20230181442A1, “METHOD FOR DYEING KERATIN MATERIAL, COMPRISING THE USE OF AN ORGANOSILICON COMPOUND, HYALURONIC ACID (SALT), A DYEING COMPOUND AND A POST-TREATMENT AGENT” (Henkel AG & Co. KGaA, priority 2020, published 2023).

The conditions of the data set: for solubility in water: 25° C.

For `CCN(Cc1cccc(S(=O)(=O)O)c1)c1ccc(C(=C2C=CC(=[N+](CC)Cc3cccc(S(=O)(=O)O)c3)C=C2)c2ccccc2S(=O)(=O)[O-])cc1` [Acid Blue 9], the solubility in water result is on record as “more than 20 wt. %”. With `O=S(=O)(O)c1ccc(N=Nc2c(O)ccc3ccccc23)cc1` [Acid Orange 7, 4-[(2-hydroxy-1-naphthyl)azo]benzene sulfonate], the solubility in water result was “more than 7 g/L”.

Regarding `O=[N+]([O-])c1cc([N+](=O)[O-])c2ccc(S(=O)(=O)O)cc2c1O` [Acid Yellow 9, 8-hydroxy-5,7-dinitro-2-naphthalenesulfonic acid], the solubility in water result was “above 40 g/L”.

Take `O=C(O)C1=NN(c2ccc(S(=O)(=O)O)cc2)C(=O)C1N=Nc1ccc(S(=O)(=O)O)cc1` (stereo not shown) [Acid Yellow 23, 4,5-dihydro-5-oxo-1-(4-sulfophenyl)-4-((4-sulfophenyl)azo)-1H-pyrazole-3-carboxylic acid]: the “solubility in water (in words)” value (water at 25° C.) is “highly soluble”.
